# Source: patent US20240000872A1, “NOVEL BACTERIOPHAGE THAT LYSES ACINETOBACTER GENUS BACTERIA HAVING RESISTANCE TO ANTIBIOTICS” (priority 2020, published 2024)
# Test system: Acinetobacter baumannii strains
# Assay: Antibiotic susceptibility test (CLSI disk diffusion test method, read per CLSI 2016)
# Assay type: cell-based
# Procedure: (§1) Strain identification was performed using a kit such as AT 32 GN system (bioMérieux, Marcy l'Etoile, France). […] In Table 2 below, S, I, and R are the results obtained by evaluating susceptibility to the antibacterial agents, in which ‘S’ means susceptible, ‘I’ means intermediate, and ‘R’ means resistant.
# as §1, with “as ATB” for “as AT”, “system (bioMédrieux,” for “system (bioMérieux,”, “Table 6” for “Table 2”
# as §1, with “as ATB” for “as AT”, “Table 10” for “Table 2”, “susceptible, T” for “susceptible, ‘I’”
structure (smiles),measurement,setting,value
"NCC[C@H](O)C(=O)N[C@@H]1C[C@H](N)[C@@H](O[C@H]2O[C@H](CN)[C@@H](O)[C@H](O)[C@H]2O)[C@H](O)[C@H]1O[C@H]1O[C@H](CO)[C@@H](O)[C@H](N)[C@H]1O [Amikacin, amikacin]",antibiotic susceptibility class,host strain YMC14/01/C29,R
same,antibiotic susceptibility class,host strain YMC14/01/IP122,R
same,antibiotic susceptibility class,host strain YMC14/01/L8,R
same,antibiotic susceptibility class,host strain YMC14/01/P31,R
same,antibiotic susceptibility class,host strain YMC14/01/P117,R
same,antibiotic susceptibility class,host strain YMC14/01/P224,R
same,antibiotic susceptibility class,host strain YMC14/01/P727,R
same,antibiotic susceptibility class,host strain YMC14/01/P728,R
same,antibiotic susceptibility class,host strain YMC14/01/R130,R
same,antibiotic susceptibility class,host strain YMC14/01/R160,R
same,antibiotic susceptibility class,host strain YMC14/01/R198,R
same,antibiotic susceptibility class,host strain YMC14/01/R257,S
same,antibiotic susceptibility class,host strain YMC14/01/R270,R
same,antibiotic susceptibility class,host strain YMC14/01/R324,R
same,antibiotic susceptibility class,host strain YMC14/01/R443,R
same,antibiotic susceptibility class,host strain YMC14/01/R451,R
same,antibiotic susceptibility class,host strain YMC14/01/R560,R
same,antibiotic susceptibility class,host strain YMC14/01/R617,R
same,antibiotic susceptibility class,host strain YMC14/01/R671,R
same,antibiotic susceptibility class,host strain YMC14/01/R732,R
same,antibiotic susceptibility class,host strain YMC14/01/R767,R
same,antibiotic susceptibility class,host strain YMC14/01/R904,R
same,antibiotic susceptibility class,host strain YMC14/01/R905,R
same,antibiotic susceptibility class,host strain YMC14/01/R921,S
same,antibiotic susceptibility class,host strain YMC14/01/R941,R
same,antibiotic susceptibility class,host strain YMC14/01/R958,R
same,antibiotic susceptibility class,host strain YMC14/01/R1006,R
same,antibiotic susceptibility class,host strain YMC14/01/R1199,R
same,antibiotic susceptibility class,host strain YMC14/01/R1659,R
same,antibiotic susceptibility class,host strain YMC14/01/R1722,R
same,antibiotic susceptibility class,host strain YMC14/01/R1752,R
same,antibiotic susceptibility class,host strain YMC14/01/R2429,R
same,antibiotic susceptibility class,host strain YMC14/01/R2572,R
same,antibiotic susceptibility class,host strain YMC14/01/R2855,R
same,antibiotic susceptibility class,host strain YMC14/01/R2945,R
same,antibiotic susceptibility class,host strain YMC14/01/R3007,R
same,antibiotic susceptibility class,host strain YMC14/01/R3129,R
same,antibiotic susceptibility class,host strain YMC14/01/R3317,R
same,antibiotic susceptibility class,host strain YMC14/01/R3474,R
same,antibiotic susceptibility class,host strain YMC14/01/R3574,R
same,antibiotic susceptibility class,host strain YMC14/01/U313,R
same,antibiotic susceptibility class,host strain YMC14/01/U318,R
same,antibiotic susceptibility class,host strain YMC14/02/L18,R
same,antibiotic susceptibility class,host strain YMC14/02/P47,R
same,antibiotic susceptibility class,host strain YMC14/02/R1860,S
same,antibiotic susceptibility class,host strain YMC14/02/R2417,R
same,antibiotic susceptibility class,host strain YMC14/02/R2599,S
same,antibiotic susceptibility class,host strain YMC14/02/R2668,R
same,antibiotic susceptibility class,host strain YMC14/02/R2758,R
same,antibiotic susceptibility class,host strain YMC14/02/R2781,R
same,antibiotic susceptibility class,host strain YMC14/02/R3106,R
same,antibiotic susceptibility class,host strain YMC14/02/R3419,R
same,antibiotic susceptibility class,host strain YMC14/02/U1607,S
same,antibiotic susceptibility class,host strain YMC14/03/L9,S
same,antibiotic susceptibility class,host strain YMC14/03/P471,S
same,antibiotic susceptibility class,host strain YMC14/03/R122,S
same,antibiotic susceptibility class,host strain YMC14/03/R217,R
same,antibiotic susceptibility class,host strain YMC14/03/R380,R
same,antibiotic susceptibility class,host strain YMC14/03/R618,S
same,antibiotic susceptibility class,host strain YMC14/03/R2144,R
same,antibiotic susceptibility class,host strain YMC14/03/U4616,R
same,antibiotic susceptibility class,host strain YMC14/04/R1078,S
same,antibiotic susceptibility class,host strain YMC14/04/R1080,S
same,antibiotic susceptibility S/I/R,host strain YMC14/06/R2359,R
same,susceptibility category (S/I/R),host strain YMC14/06/R2359,R
same,antibiotic susceptibility S/I/R,host strain YMC14/08/R1169,R
same,susceptibility category (S/I/R),host strain YMC14/08/R1169,R
same,antibiotic susceptibility S/I/R,host strain YMC14/08/T90,R
same,susceptibility category (S/I/R),host strain YMC14/08/T90,R
same,antibiotic susceptibility S/I/R,host strain YMC15/02/R436,R
same,susceptibility category (S/I/R),host strain YMC15/02/R436,R
same,antibiotic susceptibility S/I/R,host strain YMC15/02/T28,R
same,susceptibility category (S/I/R),host strain YMC15/02/T28,R
same,antibiotic susceptibility S/I/R,host strain YMC15/03/R1604,R
same,susceptibility category (S/I/R),host strain YMC15/03/R1604,R
same,antibiotic susceptibility S/I/R,host strain YMC15/09/R1869,R
same,susceptibility category (S/I/R),host strain YMC15/09/R1869,R
same,antibiotic susceptibility S/I/R,host strain YMC16/01/P11,R
same,susceptibility category (S/I/R),host strain YMC16/01/P11,R
same,antibiotic susceptibility S/I/R,host strain YMC16/01/R123,R
same,susceptibility category (S/I/R),host strain YMC16/01/R123,R
